Among the data in ChEMBL document CHEMBL3392978 (Eur J Med Chem, 2015) are inhibition of growth and IC50 values, retold here.

In one assay the test system is MCF7. As to the kind of experiment: Growth inhibition of human MCF7 cells at 10 uM after 72 hrs by MTT assay. Format: functional. As to conditions: MCF7, 72 h, read-out: GI. A general note: Formazan colour is commonly taken as a measure of viable cells.
Assay [1] deals with A-375. Kind of assay: Growth inhibition of human A375 cells at 10 uM after 72 hrs by MTT assay. The following applies: A-375, 72 h, read-out: GI. Format: functional.
Assay [2] has as its system HepG2. As to the kind of experiment: Growth inhibition of human HepG2 cells at 10 uM after 72 hrs by MTT assay. It is filed as functional. The following applies: HepG2, 72 h, read-out: GI.
In a further assay the test system is NCI-H522. As to the kind of experiment: Growth inhibition of human NCI-H522 cells at 10 uM after 72 hrs by MTT assay. It is filed as functional. As to conditions: NCI-H522, 72 h, read-out: GI.
For a further assay, the system named is SW480. As to the kind of experiment: Growth inhibition of human SW480 cells at 10 uM after 72 hrs by MTT assay. Format: functional. As to conditions: SW480, 72 h, read-out: GI.
For another assay, the system named is MDA-MB-453. As to the kind of experiment: Growth inhibition of human MDA-MB-453 cells at 10 uM after 72 hrs by MTT assay. It is filed as functional. The following applies: MDA-MB-453, 72 h, read-out: GI.
The test system of assay [3] is HepG2. As to the kind of experiment: Cytotoxicity against human HepG2 cells assessed as reduction in cell viability after 72 hrs by MTT assay. It is filed as functional, cell-based. The following applies: HepG2, 72 h.
Assay [4] concerns A-375. Kind of assay: Cytotoxicity against human A375 cells assessed as reduction in cell viability after 72 hrs by MTT assay. It is filed as functional, cell-based. The following applies: A-375, 72 h.

As for `Cc1ccc(NC(=O)c2ccc(F)cc2)cc1C(=O)Nc1ccc(-c2ncc[nH]2)nc1`, the inhibition of growth at 10 µM is 28.8% with MCF7; 24.9% with A-375 [1]; 25% with HepG2 [2]; 6.3% in the assay with NCI-H522; 10.1% in the assay with SW480; 22% in the assay with MDA-MB-453.
`Cc1ccc(NC(=O)c2ccc(Cl)c(Cl)c2)cc1C(=O)Nc1ccc(-c2ncc[nH]2)nc1`: the inhibition of growth at 10 µM stood at 33% with MCF7; 30.6% in the assay on A-375 [1]; 5.5% in the assay with HepG2 [2]; 2% in the assay on NCI-H522; 13.7% in the assay with SW480; 24.4% in the assay with MDA-MB-453.
As to `Cc1cccc(C(=O)Nc2ccc(Cl)c(C(=O)Nc3ccc(-c4ncc[nH]4)nc3)c2)c1`, the inhibition of growth at 10 µM amounted to 34% in the assay on MCF7; 40.8% in the assay on A-375 [1]; 24.8% with HepG2 [2]; 5.3% in the assay on NCI-H522; 30.8% in the assay with SW480; 23.6% in the assay with MDA-MB-453.
With `O=C(Nc1ccc(Cl)c(Cl)c1)c1ccc(Cl)c(C(=O)Nc2ccc(-c3ncc[nH]3)nc2)c1`, the inhibition of growth at 10 µM with MCF7 is 25%; in the assay on A-375 [1], 28.4%; with HepG2 [2] it was 57%; in the assay on NCI-H522, -28.6%; with SW480, 13.4%; in the assay on MDA-MB-453, 36.3%. For the same molecule, in the assay with HepG2 [3], the IC50 – broadly, the point on the concentration scale where inhibition reaches its midpoint – was 3.97 µM.
Take `Cc1ccc(NC(=O)c2ccc(Cl)cc2)cc1C(=O)Nc1ccc(-c2ncc[nH]2)nc1`: the inhibition of growth at 10 µM in the assay with MCF7 is 32.4%; with A-375 [1], 23.9%; in the assay on HepG2 [2], 12.1%; with NCI-H522, 6.4%; in the assay on SW480, 17.7%; with MDA-MB-453, 21.4%.
Consider `O=C(Nc1cccc(Cl)c1)c1ccc(Cl)c(C(=O)Nc2ccc(-c3ncc[nH]3)nc2)c1`, for which the inhibition of growth at 10 µM is 26% in the assay on MCF7; 26.1% with A-375 [1]; 19.4% with HepG2 [2]; -16.2% with NCI-H522; 5.8% with SW480; 11.6% in the assay on MDA-MB-453.
In the case of `Cc1ccc(NC(=O)c2ccc(Br)cc2)cc1C(=O)Nc1ccc(-c2ncc[nH]2)nc1`, the inhibition of growth at 10 µM in the assay on MCF7 turned out to be 31.9%; in the assay on A-375 [1], 30.1%; in the assay on HepG2 [2], 14.8%; in the assay with NCI-H522, 13.5%; in the assay on SW480, 23.9%; in the assay with MDA-MB-453, 18.9%.
Turning to `O=C(Nc1cccc(C(F)(F)F)c1)c1ccc(Cl)c(C(=O)Nc2ccc(-c3ncc[nH]3)nc2)c1`, the inhibition of growth at 10 µM in the assay on MCF7 was 25.9%; in the assay with A-375 [1], 44.1%; in the assay with HepG2 [2], 29.9%; in the assay on NCI-H522, -18%; in the assay with SW480, 18.9%; with MDA-MB-453, 19.7%.
For `O=C(Nc1ccc(Cl)c(C(=O)Nc2ccc(-c3ncc[nH]3)nc2)c1)c1ccc(C(F)(F)F)cc1`, the inhibition of growth at 10 µM in the assay on MCF7 is 35.3%; in the assay with A-375 [1] it was 47.6%; in the assay on HepG2 [2], 44%; with NCI-H522 it was -22.9%; in the assay with SW480 it was 15.1%; with MDA-MB-453, 48.4%.
`Cc1ccc(NC(=O)c2cccc([N+](=O)[O-])c2)cc1C(=O)Nc1ccc(-c2ncc[nH]2)nc1`: the inhibition of growth at 10 µM in the assay on MCF7 is 34.9%; in the assay with A-375 [1], 17.6%; in the assay on HepG2 [2], 11.1%; in the assay with NCI-H522, 8.9%; in the assay on SW480 it was 16.7%; in the assay with MDA-MB-453 it was 22.3%.
In the case of `Cc1cc(C(=O)Nc2ccc(C)c(C(=O)Nc3ccc(-c4ncc[nH]4)nc3)c2)ccc1Cl`, the inhibition of growth at 10 µM with MCF7 turned out to be 36.2%; in the assay with A-375 [1], 37.3%; in the assay with HepG2 [2] it was 32%; in the assay with NCI-H522, 12.6%; in the assay on SW480, 21.4%; with MDA-MB-453, 27.7%.
Turning to `O=C(Nc1ccc(Cl)c(C(=O)Nc2ccc(-c3ncc[nH]3)nc2)c1)c1ccc(Cl)cc1`, the inhibition of growth at 10 µM in the assay with MCF7 is 31.4%; in the assay with A-375 [1] it was 29.6%; in the assay on HepG2 [2], 38.9%; in the assay with NCI-H522 it was -1.9%; with SW480 it was 13.4%; in the assay on MDA-MB-453 it was 36.4%.
As to `Cc1ccc(NC(=O)c2cccc(Br)c2)cc1C(=O)Nc1ccc(-c2ncc[nH]2)nc1`, the inhibition of growth at 10 µM with MCF7 is 33.2%; in the assay with A-375 [1], 31.9%; in the assay with HepG2 [2], 6.4%; in the assay on NCI-H522, 10.4%; with SW480 it was 24.4%; with MDA-MB-453, 20.2%.
As to `COc1cccc(C(=O)Nc2ccc(Cl)c(C(=O)Nc3ccc(-c4ncc[nH]4)nc3)c2)c1`, the inhibition of growth at 10 µM in the assay with MCF7 was 29.6%; with A-375 [1] it was 34.9%; in the assay with HepG2 [2] it was 2.6%; in the assay on NCI-H522 it was -2.9%; in the assay on SW480, 17.6%; with MDA-MB-453, 19.4%.
`Cc1ccc(NC(=O)c2cccc(F)c2)cc1C(=O)Nc1ccc(-c2ncc[nH]2)nc1`: the inhibition of growth at 10 µM in the assay with MCF7 stood at 29.2%; in the assay on A-375 [1], 27.9%; with HepG2 [2] it was 2.1%; in the assay with NCI-H522, 8.5%; in the assay on SW480, 10.4%; in the assay on MDA-MB-453, 14.9%.
On to `O=C(Nc1ccc(Cl)c(C(=O)Nc2ccc(-c3ncc[nH]3)nc2)c1)c1ccc(Cl)c(Br)c1`, for which the inhibition of growth at 10 µM is 29.1% with MCF7; 38.4% with A-375 [1]; 35.5% in the assay on HepG2 [2]; -15.4% in the assay with NCI-H522; 12.4% in the assay on SW480; 15.1% in the assay with MDA-MB-453.
In the case of `O=C(Nc1ccc(Cl)c(C(=O)Nc2ccc(-c3ncc[nH]3)nc2)c1)c1cccc(Cl)c1`, the inhibition of growth at 10 µM in the assay on MCF7 is 29.8%; in the assay on A-375 [1], 32.4%; in the assay on HepG2 [2], 2.9%; in the assay with NCI-H522 it was -1.8%; in the assay on SW480 it was 15.5%; in the assay on MDA-MB-453, 10.7%.
Regarding `Cc1ccc(NC(=O)c2ccc(C(F)(F)F)cc2)cc1C(=O)Nc1ccc(-c2ncc[nH]2)nc1`, the inhibition of growth at 10 µM was 36.4% in the assay on MCF7; 40.4% in the assay with A-375 [1]; 25.7% with HepG2 [2]; 16.5% with NCI-H522; 28.1% in the assay on SW480; 26% with MDA-MB-453.
With `O=C(Nc1ccc(Cl)c(C(=O)Nc2ccc(-c3ncc[nH]3)nc2)c1)c1cccc(C(F)(F)F)c1`, the inhibition of growth at 10 µM was 39% in the assay on MCF7; 44.5% in the assay on A-375 [1]; 39.5% in the assay with HepG2 [2]; -27.4% in the assay on NCI-H522; 26.9% in the assay with SW480; 46.1% in the assay with MDA-MB-453.
In the case of `Cc1ccc(NC(=O)c2ccc(Cl)c(C(F)(F)F)c2)cc1C(=O)Nc1ccc(-c2ncc[nH]2)nc1`, the inhibition of growth at 10 µM with MCF7 is 30.5%; in the assay with A-375 [1] it was 42.9%; in the assay on HepG2 [2], 47.9%; in the assay with NCI-H522, -11.4%; with SW480, 16.7%; with MDA-MB-453 it was 12.5%. Moreover, the IC50 in the assay with HepG2 [3] came to 6.17 µM; in the assay on A-375 [4], 14.4 µM.
Consider `O=C(Nc1ccc(Cl)c(C(=O)Nc2ccc(-c3ncc[nH]3)nc2)c1)c1cccc(F)c1`, for which the inhibition of growth at 10 µM with MCF7 is 29.7%; in the assay on A-375 [1] it was 32.3%; in the assay with HepG2 [2] it was -12.9%; in the assay with NCI-H522 it was 7.6%; in the assay on SW480, 16.7%; in the assay on MDA-MB-453, 19%.
Regarding `Cc1ccc(C(=O)Nc2ccc(Cl)c(C(=O)Nc3ccc(-c4ncc[nH]4)nc3)c2)cc1`, the inhibition of growth at 10 µM in the assay on MCF7 is 22.4%; in the assay with A-375 [1], 30.1%; in the assay on HepG2 [2], -2.7%; with NCI-H522 it was 17.2%; in the assay on SW480 it was 21.1%; in the assay on MDA-MB-453 it was 23.2%.
With `O=C(Nc1ccc(Cl)cc1)c1ccc(Cl)c(C(=O)Nc2ccc(-c3ncc[nH]3)nc2)c1`, the inhibition of growth at 10 µM was 19.4% in the assay on MCF7; 21.9% in the assay on A-375 [1]; 18.9% with HepG2 [2]; -20% in the assay on NCI-H522; 12.7% in the assay with SW480; 16.5% with MDA-MB-453.
As to `Cc1ccc(C(=O)Nc2ccc(C)c(C(=O)Nc3ccc(-c4ncc[nH]4)nc3)c2)cc1`, the inhibition of growth at 10 µM in the assay on MCF7 amounted to 36.5%; in the assay on A-375 [1] it was 37.6%; in the assay on HepG2 [2], 17.8%; with NCI-H522, 31.8%; with SW480 it was 26.3%; with MDA-MB-453, 16.5%.
Consider `O=C(Nc1ccc(Cl)c(C(=O)Nc2ccc(-c3ncc[nH]3)nc2)c1)c1ccc(F)cc1`, for which the inhibition of growth at 10 µM with MCF7 is 33.4%; in the assay with A-375 [1], 30.1%; with HepG2 [2], -1.3%; in the assay on NCI-H522, -8.8%; with SW480, 14.9%; with MDA-MB-453 it was 21.5%.
